Results taken from ChEMBL document CHEMBL1143527, “Design, synthesis, and activity of achiral analogs of 2-quinolones and indoles as non-thiol farnesyltransferase inhibitors” (Bioorg Med Chem Lett, 2005).

Tests used:
[1] = biological target: T1, Protein farnesyltransferase (Bos taurus, UniProt P29702+P49355); experiment: Inhibition of bovine farnesyltransferase; format: protein-complex assay
[2] = biological target: T2, Geranylgeranyl transferase type I (Bos taurus, UniProt P29702+Q5EAD5); experiment: Inhibition of bovine geranylgeranyl transferase; format: protein-complex assay
[3] = biological target: T3, Protein farnesyltransferase (Mus musculus) (UniProt Q61239+Q8K2I1); experiment: Percent inhibition of H-ras processing in transformed NIH3T3 cells at 1000 nM; format: functional, cell-based
[4] = biological target: Protein farnesyltransferase (Mus musculus, UniProt Q61239+Q8K2I1); experiment: Inhibition of H-ras processing in transformed NIH3T3 cells; format: functional, cell-based
[5] = biological target: T1, Protein farnesyltransferase; experiment: Inhibition of bovine Farnesyltransferase; format: protein-complex assay
[6] = biological target: T3, Protein farnesyltransferase (Mus musculus); experiment: (§1) Percent inhibition of H-ras processing in transformed NIH3T3 cells at 100 nM; format: functional, cell-based
[7] = biological target: T3, Protein farnesyltransferase (Mus musculus); experiment: as §1; format: functional, cell-based; remark: listed apart in the source
[8] = biological target: T2, Geranylgeranyl transferase type I; experiment: Inhibition of bovine Geranylgeranyltransferase; format: protein-complex assay

`N#Cc1cn(Cc2cncn2Cc2ccc3c(c2)OCO3)cc1-c1cccc2ccccc12` was tested, and the IC50 [1] was 6.1 nM, the IC50 [2] was 520 nM and the inhibition [3] was 68%.
Molecule `N#Cc1ccc(Cn2cncc2Cn2ccc3c(C#N)c(-c4cccc5ccccc45)ccc32)cc1` has an IC50 [1] of 0.15 nM, an EC50 [4] of 2.1 nM and an IC50 [2] of 110 nM.
In the case of `Cn1c(=O)cc(-c2cccc(Cl)c2)c2cc(Cn3cncc3COCc3ccc(C#N)cc3)ccc21`, the IC50 [1] is reported as greater than 1000 nM.
For `Cn1c(=O)cc(-c2cccc(Cl)c2)c2cc(Cn3cncc3Cc3ccc(C#N)cc3)ccc21`, the IC50 [5] was 4.7 nM, the IC50 [1] was 7.2 nM and the inhibition [6] was 57%. It also gave an IC50 [2] greater than 10000 nM, an inhibition [7] of 57% and an IC50 [8] of 17000 nM.
With `N#Cc1ccc(Cn2cncc2Cn2cc(C#N)c(-c3cccc4ccccc34)c2)cc1` the IC50 [1] was 0.58 nM, the EC50 [4] was 34 nM and the IC50 [2] was 140 nM.
Work on `Cn1c(=O)cc(-c2cccc(Cl)c2)c2cc(Cn3cncc3COc3ccc(C#N)cc3)ccc21` yielded an IC50 [1] greater than 1000 nM.
`Cn1c(=O)cc(-c2cccc(Cl)c2)c2cc(Cn3cncc3Cn3ccc(C#N)c3)ccc21` gave an IC50 [1] of 560 nM.
`Cn1c(=O)cc(-c2cccc(Cl)c2)c2cc(C(N)c3cncn3Cc3ccc(C#N)cc3)ccc21` (configuration not stated) showed an IC50 [1] of 3.8 nM, an IC50 [2] of 22000 nM and an inhibition [7] of 42%.
`Cn1c(=O)cc(-c2cccc(Cl)c2)c2cc(Cn3cncc3Cn3ccc(=O)cc3)ccc21` was tested, and the IC50 [1] was greater than 1000 nM.
Molecule `Cn1c(=O)cc(-c2cccc(Cl)c2)c2cc(C(NC=O)c3cncn3Cc3ccc(C#N)cc3)ccc21` (configuration not stated) has an IC50 [1] of 2.1 nM, an IC50 [2] greater than 10000 nM and an inhibition [7] of 28%.
`Cn1c(=O)cc(-c2cccc(Cl)c2)c2cc(C(=O)c3cncn3Cc3ccc(C#N)cc3)ccc21` showed an IC50 [1] of 29 nM, an IC50 [2] of less than 10000 nM and an inhibition [7] of 30%.
Work on `Cn1c(=O)cc(-c2cccc(Cl)c2)c2cc(Cn3cncc3Cn3ccc(C(=O)N4CCOCC4)c3)ccc21` yielded an IC50 [1] greater than 1000 nM.
With `CC(=O)OC(c1ccc(C#N)cc1)c1cncn1Cc1ccc2c(c1)c(-c1cccc(Cl)c1)cc(=O)n2C` (configuration not stated) the IC50 [1] was greater than 1000 nM and the IC50 [2] was greater than 1000 nM.
`Cn1c(=O)cc(-c2cccc(Cl)c2)c2cc(COCc3cncn3Cc3ccc(C#N)cc3)ccc21` gave an IC50 [1] of 89 nM.
For `Cn1c(=O)cc(-c2cccc(Cl)c2)c2cc(Cn3cncc3Cc3ccc(C#N)cc3)cnc21`, the IC50 [1] was 10 nM, the IC50 [2] was 4000 nM and the inhibition [7] was 39%.
`Cn1cncc1C(OCc1ccc2c(c1)c(-c1cccc(Cl)c1)cc(=O)n2C)c1ccc(C#N)cc1` (configuration not stated) gave an IC50 [1] of 80 nM.
With `Cn1c(=O)cc(-c2cccc(Cl)c2)c2cc(Cn3cncc3C(O)c3ccc(C#N)cc3)ccc21` (configuration not stated) the IC50 [1] was 44 nM and the IC50 [2] was greater than 10000 nM.
`NC(=O)N1CCC(CC(=O)N2CCC([C@H]3c4ncc(Br)cc4CCc4cc(Cl)cc(Br)c43)CC2)CC1` [LONAFARNIB] showed an IC50 [2] greater than 10000 nM and an inhibition [7] of 100%.
For `Cn1cncc1[C@@](N)(c1ccc(Cl)cc1)c1ccc2c(c1)c(-c1cccc(Cl)c1)cc(=O)n2C`, the inhibition [7] was 1.6%.
With `Cn1c(=O)cc(-c2cccc(Cl)c2)c2cc(C(O)c3cncn3Cc3ccc(C#N)cc3)ccc21` (configuration not stated) the IC50 [1] was 4.7 nM, the IC50 [2] was 17000 nM and the inhibition [7] was 32%.
For `N#Cc1ccc(Cn2cncc2Cn2ccc3cc(-c4cccc5ccccc45)ccc32)cc1`, the IC50 [1] was 0.93 nM, the EC50 [4] was 5.7 nM and the IC50 [2] was 270 nM.
